Source: EP0441218A2, “Anthracycline-glycosyl prodrugs, process for their preparation and their use in combination with functionalised tumour-specific enzyme conjugates” (BEHRINGWERKE Aktiengesellschaft, priority 1990, dated 1991)

How the values were obtained:
[1] = biological target: T1, Human-Plazenta-α-Galactosidase A (Homo sapiens, UniProt P06280); assay: Cleavage of the prodrug by human placenta α-galactosidase A (HPLC analysis); format: biochemical; conditions: placenta alpha-galactosidase a, 0.03 U/ml α-Galactosidase A, Phosphat-Puffer pH 5, 37 °C, dark, extrapolated value, read-out: Halbwertszeit der Spaltung (converted)
T1 construct: der aus Human-Plazenta isolierten α-Galactosidase A; from tissue; host or cells: human placenta
T1 sequence (P06280 32-429): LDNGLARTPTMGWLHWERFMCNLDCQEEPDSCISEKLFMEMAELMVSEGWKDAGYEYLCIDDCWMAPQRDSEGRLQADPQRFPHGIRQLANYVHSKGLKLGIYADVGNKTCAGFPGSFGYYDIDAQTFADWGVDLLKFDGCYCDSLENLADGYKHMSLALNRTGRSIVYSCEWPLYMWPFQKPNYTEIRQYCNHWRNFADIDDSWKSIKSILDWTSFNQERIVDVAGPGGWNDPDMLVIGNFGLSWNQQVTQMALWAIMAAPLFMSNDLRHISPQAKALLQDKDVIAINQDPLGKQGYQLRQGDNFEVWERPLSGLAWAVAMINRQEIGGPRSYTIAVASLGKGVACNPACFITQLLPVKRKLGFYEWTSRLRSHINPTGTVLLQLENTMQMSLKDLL
Description: (§1) Spaltung von 14-O-α-D-Galacto-hexo-pyranosyl-doxorubicin (Verbindung 10) durch Human-Plazenta-α-Galactosidase A 0.5 mg der Ausgangsverbindung wurden in 0.5 ml Phosphat-Puffer, pH 5, enthaltend 0.03 U/ml der aus Human-Plazenta isolierten α-Galactosidase A gelöst und bei 37 °C im Dunklen inkubiert. Nach verschiedenen Inkubationszeiten wurden Proben des Inkubationsansatzes entnommen und direkt mittels Hochdruckflüssigkeitschromatographie analysiert (Säule: Nucleosil 100 (RP 18, 5 µm Teilchendurchmesser, 125 x 4.6 mm; Mobile Phase: Gradient aus Lösung A und B: 0 min - 20% A, 10 min - 30% A, 15 min - 30% A, Lösung A = 100% Acetonitril, Lösung B = 0.02 m Phosphat-Puffer pH 3.0; Flußrate: 1 ml/min; Detektion: Fluoreszenz, Ex 495 nm, Em 560 nm). Die Retentionszeit der Ausgangsverbindung betrug unter diesen Chromatographiebedingungen 9.0 min. Die während der Inkubation entstehende Verbindung wies eine mit Adriamycin identische Retentionszeit von 12.6 min auf.
(§2) Die Halbwertszeit der Spaltung betrug unter dem beschriebenen Bedingungen ca. 54 h (extrapolierter Wert). Bei der Inkubation der Ausgangsverbindung in enzymfreier Pufferlösung blieb die Verbindung über diesen Zeitraum stabil.

[2] = Stability of the prodrug on incubation in enzyme-free buffer; format: physicochemical; conditions: Phosphat-Puffer pH 5, 37 °C, without enzyme, over the same period (ca. 54 h)
Description: as §1, §2

[3] = biological target: T2, Kaffeebohnen-α-Galactosidase (Coffea arabica, UniProt Q42656); assay: Cleavage of the prodrug by coffee bean α-galactosidase (HPLC analysis); format: biochemical; conditions: coffee bean alpha-galactosidase; 0.03 U/ml Kaffeebohnen-α-Galactosidase (Sigma), Phosphat-Puffer pH 5, 37 °C; read-out: Halbwertszeit der Spaltung
T2 construct: purchased Sigma
T2 sequence (Q42656 16-378): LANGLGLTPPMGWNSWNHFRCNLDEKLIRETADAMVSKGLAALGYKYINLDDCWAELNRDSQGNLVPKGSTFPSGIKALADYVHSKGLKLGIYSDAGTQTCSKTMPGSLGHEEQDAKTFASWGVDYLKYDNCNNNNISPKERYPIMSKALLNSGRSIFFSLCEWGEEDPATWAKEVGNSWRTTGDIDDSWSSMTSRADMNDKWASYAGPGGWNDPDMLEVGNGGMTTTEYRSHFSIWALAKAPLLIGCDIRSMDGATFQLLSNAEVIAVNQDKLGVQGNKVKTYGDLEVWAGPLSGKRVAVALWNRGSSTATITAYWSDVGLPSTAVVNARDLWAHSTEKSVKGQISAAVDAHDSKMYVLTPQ
Description: as §1
Spaltung von 14-O-α-D-Galacto-hexo-pyranosyl-doxorubicin (Verbindung 10) durch Kaffebohnen-α-Galactosidase Die Ausgangsverbindung wurde unter den gleichen wie in Beispiel 11 beschriebenen Bedingungen in Gegenwart von 0.03 U/ml Kaffeebohnen-α-Galactosidase (Sigma) inkubiert. Die Halbwertszeit der Spaltung betrug in Gegenwart des Enzyms ca. 20 min.

In the case of `COc1cccc2c1C(=O)c1c(O)c3c(c(O)c1C2=O)C[C@@](O)(C(=O)CO[C@H]1O[C@H](CO)[C@H](O)[C@H](O)[C@H]1O)C[C@@H]3O[C@H]1C[C@H](N)[C@H](O)[C@H](C)O1` [Verbindung 10, 14-O-α-D-Galactohexopyranosyl-doxorubicin], the half-life [1] is reported as roughly 54 h, the “Stability in enzymfreier Pufferlösung” value [2] is reported as “stabil” and the half-life [3] is reported as roughly 0.333 h.
